Experimental data as given in patent publication US6174914A, “Method of inhibiting cytokine release from human ocular cells” (Alcon Laboratories, Inc., priority 1999, dated 2001).
Counter-ions that a name gives are not always drawn.

Assays:
[1] = cited from earlier work; for activity taught in U.S. Pat. Nos. 4,871,865 and 4,923,892: Burroughs Wellcome Patents
[2] = tested on: IL-6 secretion in human conjunctival epithelial cells; experiment: Inhibition of histamine-stimulated IL-6 secretion from cultured human conjunctival epithelial cells (ELISA); type: cell-based; settings: for potency in intact cells / inhibition of secretion compared with receptor binding: IL-6 and IL-8 secretion
Excerpt: Methods detailing the preparation of primary epithelial cell cultures and cytokine release studies using these cells have been described. […] Briefly, cultures of human conjunctival epithelial cells were initiated from donor tissues obtained within eight hours post mortem by various eye banks. The tissues were enzymatically digested overnight. Epithelial cells were gently scraped from the tissue surface, dissociated into a single cell suspension, and cultured in keratinocyte growth medium (Clonetics®, San Diego, Calif.). Cells were used only through passage 6. Cultures were maintained in a preconfluent state to prevent differentiation.
Several compounds with histamine H1 antagonist activity were evaluated for their ability to inhibit secretion of cytokines (IL-6 and IL-8) from cultured human conjunctival epithelial cells in response to histamine stimulation. Cells were plated at 2×10^4 cells/well and cultured overnight at 5% CO2 /37° C. The following day, fresh medium containing test compound was added directly to wells and the cells were incubated for 30 minutes prior to 24-hour stimulation with histamine (30 μM). Three separate culture wells were used for each treatment group. At harvest, supernatants were collected, centrifuged at 200× g, and stored at -20° C. Samples were analyzed for IL-6 and IL-8 by ELISA (R&D Systems, Minneapolis, Minn.) as directed by the manufacturer. The sensitivities of each ELISA are as follows: IL-6 0.7 pg/ml and IL-8 3.0 pg/ml.
Data derived from the cytokine assays were calculated as mean and standard error (SEM) values which represent the variability among identically treated culture wells. The dose-dependent effect of pharmacological agents and IC50 's were determined by linear regression. Data are expressed as mean ±S.E.M. from 3-5 independent experiments.

[3] = tested on: IL-8 secretion in human conjunctival epithelial cells; experiment: Inhibition of histamine-stimulated IL-8 secretion from cultured human conjunctival epithelial cells (ELISA); type: cell-based; settings: Epithelial cell, 24 h, read-out: increase of IL-8 secretion above basal levels
Excerpt: Methods detailing the preparation of primary epithelial cell cultures and cytokine release studies using these cells have been described. See Gamache, et al., "Secretion of proinflammatory cytokines by human conjunctival epithelial cells," Ocul Immunol Inflamm., 5:117-128 (1997). Briefly, cultures of human conjunctival epithelial cells were initiated from donor tissues obtained within eight hours post mortem by various eye banks. The tissues were enzymatically digested overnight. Epithelial cells were gently scraped from the tissue surface, dissociated into a single cell suspension, and cultured in keratinocyte growth medium (Clonetics®, San Diego, Calif.). Cells were used only through passage 6. Cultures were maintained in a preconfluent state to prevent differentiation. Cells were identified as epithelial by positive keratin staining.
Several compounds with histamine H1 antagonist activity were evaluated for their ability to inhibit secretion of cytokines (IL-6 and IL-8) from cultured human conjunctival epithelial cells in response to histamine stimulation. Cells were plated at 2×10^4 cells/well and cultured overnight at 5% CO2 /37° C. […] Samples were analyzed for IL-6 and IL-8 by ELISA (R&D Systems, Minneapolis, Minn.) as directed by the manufacturer. […]

[4] = IL-6 and IL-8 secretion versus H1 binding

CN(C)CCC=C1c2ccccc2COc2ccc(/C=C/C(=O)O)cc21 [11-(3-dimethylamino-propylidene)-6,11-dihydrodibenz[b,e]oxepine-2(E)-acrylic acid]
activity taught in U.S. Pat. Nos. 4,871,865 and 4,923,892 [1]: antihistaminic and antiasthmatic activity

CN(C)CCC=C1c2ccccc2COc2ccc(C(=O)O)cc21 [11-(3-dimethylaminopropylidene)-6,11-dihydrodibenz[b,e]oxepine-2-carboxylic acid]
activity taught in U.S. Pat. Nos. 4,871,865 and 4,923,892 [1]: antihistaminic and antiasthmatic activity

c1ccc(CN(CC2=NCCN2)c2ccccc2)cc1 [Antazoline, 4,5-Dihydro-N-phenyl-N-(phenylmethyl)-1H-imidazole-2-methanamine]
less potent inhibitor of IL-6 and IL-8 secretion than predicted from histamine H1-receptor binding affinity [2, 4]: 20-140 fold

CCOCCn1c(N2CCCN(C)CC2)nc2ccccc21 [Emedastine, 1H-Benzimidazole,1-(2-ethoxyethyl)-2-(hexahydro-4-methyl-1H-1,4-diazepin-1-yl),(E)-2-butenedioate (1:2)]
potency in intact cells / inhibition of secretion compared with receptor binding [2]: consistent with its activity determined in receptor binding assays

C[C@@H]1CN([C@H]2CC[C@](C#N)(c3ccc(F)cc3)CC2)CC[C@]1(C(=O)O)c1ccccc1 [Levocabastine, (-)-trans-1-[cis-4-Cyano-4-(p-fluorophenyl)cyclohexyl]-3-methyl-4-phenylisonipecotic acid monohydrochloride]
potency in intact cells / inhibition of secretion compared with receptor binding [2]: at a level consistent with its H1 -receptor binding affinity

CN(C)CC/C=C1/c2ccccc2COc2ccc(CC(=O)O)cc21 [Olopatadine, Z-11-(3-Dimethylaminopropylidene)-6,11-dihydrodibenz[b,e]oxepin-2-acetic acid]
more potent inhibitor of cytokine secretion than predicted from binding data [2, 4]: approximately 10 fold | activity taught in U.S. Pat. No. 5,116,863 ([1]; Kyowa patent, Wistar male rats): anti-allergic and anti-inflammatory activity

CN(C)CCC(c1ccccc1)c1ccccn1 (stereo not shown) [Pheniramine, N,N-Dimethyl-γ-phenyl-2-pyridine-propanamine]
less potent inhibitor of IL-6 and IL-8 secretion than predicted from histamine H1-receptor binding affinity [2, 4]: 20-140 fold

NCCc1c[nH]cn1 [histamine]
fold induction at 30 µM ([2]; Homo sapiens, Epithelial cell, 24 h, read-out: increase of IL-6 secretion above basal levels): 1.59 ± 0.19 | fold induction at 30 µM [3]: 1.8 ± 0.28
